Five compounds from patent US10751318B2, “Pharmaceutical co-crystal and use thereof” (SYN-NAT PRODUCTS ENTERPRISE LLC, priority 2015, dated 2020) can be followed below.

Data set [1] has as its system human embryonic kidney cell line HEK293. As to the kind of experiment: MTS cell viability assay, HEK293 (kidney cancer study; controls carboplatin, 5-FU).
The test system of data set [2] is A498 kidney cancer cell line. As to the kind of experiment: MTS cell viability assay, A498 kidney cancer cells. Format: cell-based. In general terms: Tetrazolium dyes change colour on reduction, which living cells bring about.
The test system of data set [3] is ACHN kidney cancer cell line. Description: MTS cell viability assay, ACHN kidney cancer cells. The class given is cell-based. As to conditions: read-out: IC50 to reduce ACHN cell number.
Data set [4] relates to fetal hepatocytes HL-7002. As to the kind of experiment: MTS cell viability assay, HL-7002 (kidney cancer study; controls carboplatin, 5-FU). The following applies: for IC50: read-out: IC50 in HL-7002 cells.
Data set [5] deals with fetal hepatocytes HL-7002. As to the kind of experiment: MTS cell viability assay, HL-7002 (prostate cancer study; controls docetaxel, cisplatin). As to conditions: for IC50: read-out: IC50 to reduce HL-7002 cell number.
Data set [6] has as its system human embryonic kidney cell line HEK293. Description: MTS cell viability assay, HEK293 (prostate cancer study; controls docetaxel, cisplatin). The following applies: for toxicity to HEK293 cells: study with docetaxel and cisplatin (FIG. 4).
Data set [7] has as its system LNCaP prostate cancer cell line. As to the kind of experiment: MTS cell viability assay, LNCaP prostate cancer cells. The class given is cell-based, human. As to conditions: 0.01 to 300 μM, read-out: IC50 to reduce LNCaP cell number.
In data set [8] the test system is HBeAg secreted by HepG2.2.15 cells. As to the kind of experiment: HBeAg secreted by HepG2.2.15 cells (ELISA). Format: cell-based, hepatitis B virus. As to conditions: 3d. The text has this:
(§1) The levels of HbsAg and HbeAg in chemical-treated HepG2.2.15 cells were detected by enzyme-linked immunosorbent assay (ELISA).

Data set [9] concerns HBsAg secreted by HepG2.2.15 cells. Description: HBsAg secreted by HepG2.2.15 cells (ELISA). Format: cell-based, hepatitis B virus. As to conditions: 3d.
Description: as §1
(In general: In an ELISA, binding on a coated surface is turned into a signal by an enzyme label.)

Data set [10] relates to PC-3 prostate cancer cell line. Description: MTS cell viability assay, PC-3 prostate cancer cells. The following applies: PC-3 cells, 0.01 to 300 μM, read-out: IC50 to reduce PC-3 cell number. The class given is cell-based, human.
Setting [11] is: read-out: IC50 in HEK293 cells, HEK293 cells, study with carboplatin and 5-FU (FIG. 8).
The mark [12] stands for this setting: A498 cells, MTS, 0.01 to 300 uM, read-out: IC50 to reduce A498 cell number.
Where [13] appears, read: ACHN cells, MTS, 0.01 to 300 uM.
Setting [14] is: HL-7002 cells, study with carboplatin and 5-FU (FIG. 7).
[15] abbreviates: HL-7002 cells, similar conditions.
Setting [16] is: HL-7002 cells, study with docetaxel and cisplatin (FIG. 3).
The mark [17] stands for this setting: HEK293 cells, similar conditions.

Values joined by “and” are separate entries in the source; they are usually repeats but may differ in a detail not shown here. Equal values may be shown once. Read-outs that look alike come from different tables or passages of the source.

In general, IC50 refers to the midpoint of a concentration-inhibition curve. As for `O=c1[nH]cc(F)c(=O)[nH]1` [5-FU, fluorouracil, reference compound], the IC50 was 356 µM in data set [1] (Homo sapiens, HEK293, read-out: IC50 in HEK293 cells); 18.2 µM in data set [2] (Homo sapiens, A498, read-out: IC50 to reduce A498 cell number); 6.45 µM in [3] (Homo sapiens, ACHN); 45 µM in [4] (Homo sapiens, Hepatocyte).
With `N.N.O=C([O-])C1(C(=O)[O-])CCC1.[Pt+2]` [carboplatin, reference compound], the 50% inhibitory concentration (IC50) is 237 µM in data set [1] (setting [11]), 14.7 µM in [2] (setting [12]), 11 µM in data set [3] (setting [13]) and 34 µM in data set [4] (setting [14]). Further, the water solubility in “Water solubility” is 18 mg/mL.
In the case of `CC(=O)O[C@@]12CO[C@@H]1C[C@H](O)[C@@]1(C)C(=O)[C@H](O)C3=C(C)[C@@H](OC(=O)[C@H](O)[C@@H](NC(=O)OC(C)(C)C)c4ccccc4)C[C@@](O)([C@@H](OC(=O)c4ccccc4)[C@H]21)C3(C)C` [docetaxel, reference compound], the IC50 in data set [5] (Homo sapiens, Hepatocyte) came to 0.095 µM. Further, the “toxicity to HEK293 cells” value in [6] is recorded as “strong toxicity”.
Turning to “carboplatin cis-cyclobutane-1,2-dicarboxylic acid co-crystal [CBCBP]”, the “toxicity of CBCBP relative to cisplatin” value in [5] (setting [15]) was “about 1/10”. Further, the “toxicity of CBCBP relative to docetaxel” value in data set [5] (setting [15]) is listed as “about 1/216”. Also, the IC50 was ~20.5 µM and 20.5 µM in data set [5] (setting [16]); 1200 µM and ~1200 µM in data set [1] (setting [11]); around 19.6 µM in data set [7]; ~18.4 µM and 18.4 µM in [2] (setting [12]); ~17.6 µM and 17.6 µM in data set [10]; 11.6 µM and ~11.6 µM in [3] (setting [13]). Besides, the IC50 in data set [4] (setting [14]) is 351 µM and ~351 µM. Besides, the “toxicity of CBCBP relative to 5-FU” value in data set [1] (setting [17]) was “about ¼”; in [4] (setting [15]) it was “about ⅛”. For the same compound, the figures for the “toxicity of CBCBP relative to carboplatin” value in [1] (setting [17]) and in data set [4] (setting [15]) were “about ⅕” and “about 1/10”, respectively. For the same compound, the water solubility in “Water solubility” was around 30 mg/mL. For the same compound, the “inhibition rate HbeAg” value in data set [8] (3.125 μg/mL) amounted to 0.6%; in data set [8] (6.25 μg/mL) it was 25.0%; in data set [8] (12.5 μg/mL) it was 25.3%; in [8] (25 μg/mL) it was 28.5%. For the same compound, the “inhibition rate HbsAg” value in data set [9] (3.125 μg/mL) is 19.5%; in [9] (6.25 μg/mL), 23.6%; in data set [9] (12.5 μg/mL) it was 37.3%; in [9] (25 μg/mL), 48.5%. Also, in [6], the “toxicity to HEK293 cells” value is given as “no toxicity”.
Take `N.N.[Cl][Pt][Cl]` [cisplatin, reference compound]: the IC50 in [5] (setting [16]) was 2.01 µM; in [7] it was 2.25 µM; in data set [10], 2.49 µM; in data set [6] (read-out: IC50 in HEK293 cells, study with docetaxel and cisplatin (FIG. 4)), 6.9 µM.
